Here are results for two compounds from patent US20080199451A1, “Composition for the Treatment and/or Prevention of Attacks by Biological Agents” (priority 2005, published 2008).

One experiment has as its system Cacopsylla pyri. In words: Field test on pear lice (Example 11). In kind it is in vivo. The method, then: Pear plants with a high level of lice infestation were treated on May 6 and 20 2006. […]
For experiment [1], the system named is European red mite Panonychus ulmi. Briefly: Ovicide activity on European red mite eggs on beet leaf discs (Example 6). It is filed as in vivo. Conditions: after 8 days; leaf discs immersed five seconds; oil 1.5%, meal 2 g l^−1, hexythiazox 50 mg p.a. l^−1. The method, then: Beet leaf discs measuring 60 mm were placed in a 90 mm diameter Petri dish and kept in a climatic cell at 24° C., 75% R.H. with 17 hours of light. Fifteen female mites were placed on each leaf disc to lay their eggs. The females were removed after 24 hours and the eggs were counted. Each group consisted of three leaf discs. The treatments were carried out with the “deep test” method: the leaf discs were immersed for five seconds in a suspension consisting of 1.5% vegetable oil, 1.5% vegetable oil+2 g l^−1 carinata meal, 1.5% UF mineral oil+2 g l^−1 carinata meal or the acaricide hexythiazox Matacar (Sipcam) at a dose of 50 mg p.a. I^−1. The control was immersed in water. The ovicide activity was assessed starting on the fourth day and every 2 days up to the eighth day, calculating the percentage of hatched eggs estimated indirectly by counting the live offspring.

On to Abamectin, for which the surviving offspring in the experiment on Cacopsylla pyri (ten days after the first treatment) came to 22. For the same compound, in the experiment on Cacopsylla pyri (third observation (30 days after the second treatment)), the “offspring or nymphs found” value is on record as “no offspring or nymphs were found”.
Take `C[C@@H]1[C@@H](c2ccc(Cl)cc2)SC(=O)N1C(=O)NC1CCCCC1` [commercial acaricide, hexythiazox]: the hatched eggs in experiment [1] is 23.4%.
